Assay results as given in publication PMC10219169, “Thiopurines Analogues with Additional Ring: Synthesis, Spectroscopic Properties, and Anticancer Potency” (International Journal of Molecular Sciences, 2023).
Read-outs that look alike come from different tables or passages of the source.

Columns and labels:
[1] = n-octanol/phosphate buffer pH 7.4 partition coefficient (lipophilicity determination); type: physicochemical; settings: 1-octanol/phosphate buffer pH 7.4, read-out: Experimental log Po/w (pH 7.4)
Description: The key parameter in drug design and one of the most important properties for all the pharmacokinetic rules is the octanol/water partition coefficient, log Po/w. It is defined as the partition coefficient ratio of a compound between the hydrophobic and hydrophilic phases and corresponds to lipophilicity, which describes drug interactions with membranes and the possibility of their transport across the membrane into the cell. The values of log Po/w were determined experimentally for all the tested compounds and compared with the values theoretically estimated on the SwissADME [23] webserver.
The partition coefficients of the tested compounds were determined for n-octanol/phosphate buffer pH 7.4 at 25 °C and 37 °C. The initial concentrations of the compounds (1.0 × 10^−5 M and 2.0 × 10^−5 M) were measured spectrophotometrically, according to the Beer–Lambert law. The absorbances were recorded at λmax of the appropriate compound against a suitable phosphate buffer blank. A quantity of 1 mL of the solution of the tested compound in the phosphate buffer at pH 7.4 and 1 mL of n-octanol were placed in 2 mL Eppendorf tubes. The samples were shaken manually (2 min), vortexed (5 min), and incubated for 5 h at 25 °C or 37 °C. Then, the tubes were centrifuged (2 min, 10,000 rpm). Both layers were carefully separated, and the absorbances were measured for the aqueous layers at a suitable λmax against the blank of the phosphate buffer at a suitable pH. The given logPo/w values are the mean of three independent experiments (one experiment: 3 samples for 2 concentrations of each compound).

HeLa cells = test: CellTiter-Glo cell viability assay (24 h), HeLa; type: cell-based, human; settings: for IC50: CellTiter-Glo; for reduction of HeLa cell viability: c = 80 μM; for selectivity index (SI): SI = IC50 normal cell (NIH/3T3) / IC50 cancerous cell (HeLa)
Description: (§1) The compounds in this work were tested for their in vitro inhibitory effect on the viability of the HeLa (cancerous) cell line using the CellTiter-Glo® 2.0 cell viability assay (24 h). In addition, the mouse fibroblast NIH/3T3 cell line was used to assess the effects of the compounds on healthy normal cells. […] The 6TG was used as a standard in all tests conducted. The graph of percentage cell viability (y axis) against concentrations of the tested compounds (x axis) and concentration-viability curves with IC50 values from dose-response studies are presented in Figure 4 and Figure 5, respectively.
(§2) The cytotoxicity of the synthesized compounds was tested using cell lines of cervical cancer (HeLa) and mouse fibroblasts (NIH/3T3). Both cell lines were cultured in Dulbecco′s Modified Eagle′s medium (31053, Sigma-Aldrich-Gibco, Thermo Fisher Scientific, Waltham, MA, USA) supplemented with 10% fetal bovine serum (Biowest, Nuaillé, France), 1% Glutamax (Thermo Fisher Scientific, Waltham, MA, USA), and 1% Antibiotic-Antimycotic (Biowest) under standard culture conditions (95% humidity, 5% CO2, at 37 °C). For the purpose of cytotoxicity assays, cells (from both cell lines) were seeded at a density of ca. 5000 cells/well on a 96-well microplate (white, flat bottom), in 4 replicates. 6-Me-TEGuo, 6-Me-TEGua, TEGuo, TEGua, and 6-Me-TEG were tested for their potential cytotoxicity using the following concentrations: 160 (except 6-Me-TEG), 80, 40, 20, 10, 5, and 2.5 μM. Additionally, 6-thioguanine (6TG) in concentrations of 10, 7.5, 5, 2.5, 1.25, and 0.625 μM was tested. All assays included non-treated cells and cells treated with 10% DMSO as negative and positive controls, respectively. The cells were incubated for 24 h under standard culture conditions. Cytotoxicity was measured as cell viability with the CellTiter-Glo® Luminescent Cell Viability Assay (Promega, Madison, WI, USA) according to the manufacturer’s protocol. The microplate luminescence was measured using an Infinite® 200 PRO plate reader (Tecan, Männedorf, Switzerland). Then, the average luminescence of non-labeled cells was equated to 100%, and the remaining values were proportionally normalized. The IC50 values were calculated from the fitting curves using Origin 2022.

[2] = pKa determination by spectrophotometric method; type: physicochemical; settings: for fraction existing in ionic form: at physiological pH (7.32–7.42); for pKa: spectrophotometric method, buffer solutions of different pH
Description: The synthesized compounds, due to their structure, can be hydrogen donors as well as acceptors. Depending on the pH, they can exist in protonated or deprotonated forms. In order to establish which form of the new tricyclic thiopurine derivatives is favored at neutral pH (the conditions under which the in vitro tests will be carried out), their pKa values were determined by spectrophotometric methods (see Table 1 and the Experimental Section). […] This means that at physiological pH (7.32–7.42), about 6% of TEGuo/TEGua exist in ionic form, while 6-Me-TEGuo/6-Me-TEGua only about 4%.
UV-vis absorption spectra were recorded using a Cary 100 spectrophotometer scanning from 800 to 200 nm with 1 nm increments in 1 cm × 1 cm quartz cells. Emission spectra were taken in 1 cm × 1 cm quartz cells on a JASCO FP–8300 spectrofluorometer (excitation and emission slits 5 nm, scan speed 500 nm min^−1) for solutions with absorbance at the excitation wavelength less than 0.1. The fluorescence quantum yields were determined using 10-methylacridinium cation in water (Φ = 1.0) as a standard. The dissociation constants were determined by the spectrophotometric method: in a first step, buffer solutions of different pH were prepared. The pH of solutions was determined by a Mettler Toledo F20 FiveEasy pH meter equipped with a pH electrode LE438 3 in 1 (Mettler Toledo). In the second step, equal volumes of a substance dissolved in water (10 μL) were added to the buffer solution (3 mL). The spectra were recorded with 1 nm resolution over the range from 220 to 550 nm to obtain different spectra around the maximum λ for each compound studied. The purity of all samples was monitored by an HPLC method. HPLC measurements were performed using an Agilent 1200 Rapid Resolution UHPLC system equipped with a reversed-phase column (Eclipse Plus C18, […], 4.6 × 250 mm). A gradient of acetonitrile in water was used as an eluent. The water was doubly distilled and purified using a Milli-Q system (Millipore, Bedford, MA, USA). The fluorescence lifetime measurements were recorded using a Fluorescence Lifetime Spectrometer (FluoTime 300 from PicoQuant) with a time-correlated single-photon counting detection system equipped with a 378 nm laser as its excitation source. All experiments were carried out in a standard quartz cell (1 cm × 1 cm).

NIH/3T3 cells = test: CellTiter-Glo cell viability assay (24 h), NIH/3T3; type: cell-based; settings: Mus musculus, NIH3T3, NIH/3T3, 24 h
Description: as §1, §2

[3] = pKa* of singlet excited state from pH-dependent fluorescence emission; type: physicochemical; settings: determined from emission from the singlet excited state
Description: At pH 4.0, as was the case for the absorbance at 352 nm, the intensity and shape of the fluorescence signal were similar to those observed in water solution for all the compounds tested. However, in the case of basic pH, a two-fold increase in the emission intensity and a blueshift of the emission maximum were observed.
UV-vis absorption spectra were recorded using a Cary 100 spectrophotometer scanning from 800 to 200 nm with 1 nm increments in 1 cm × 1 cm quartz cells. Emission spectra were taken in 1 cm × 1 cm quartz cells on a JASCO FP–8300 spectrofluorometer (excitation and emission slits 5 nm, scan speed 500 nm min^−1) for solutions with absorbance at the excitation wavelength less than 0.1. The fluorescence quantum yields were determined using 10-methylacridinium cation in water (Φ = 1.0) as a standard. The dissociation constants were determined by the spectrophotometric method: in a first step, buffer solutions of different pH were prepared. The pH of solutions was determined by a Mettler Toledo F20 FiveEasy pH meter equipped with a pH electrode LE438 3 in 1 (Mettler Toledo). […] The spectra were recorded with 1 nm resolution over the range from 220 to 550 nm to obtain different spectra around the maximum λ for each compound studied. The purity of all samples was monitored by an HPLC method. […]

[4] = n-octanol/phosphate buffer pH 7.4, pH 7.4, 25 °C
[5] = n-octanol/phosphate buffer pH 7.4, pH 7.4, 37 °C

Compound	logP at 5 h [1, 4]	logP at 5 h [1, 5]	effect on HeLa cell viability (HeLa cells; HeLa, concentration range 2.5 μM to 80 μM, 24 h)	fraction existing in ionic form [2]	pKa [2]	IC50 (HeLa cells; HeLa, 24 h) [µM]	reduction of HeLa cell viability (HeLa cells; HeLa, 24 h)	IC50 (HeLa cells; Homo sapiens, HeLa, 24 h) [µM]	IC50 (NIH/3T3 cells) [µM]	selectivity index (SI) (HeLa cells)	pKa* (singlet excited state) [3]
CC(=O)OC[C@H]1O[C@@H](n2cnc3c(=S)n4cc(C)[nH]c4nc32)[C@H](OC(C)=O)[C@@H]1OC(C)=O [6-Me-TEG, 2′,3′,5′-tri-O-acetyl-6-methyl-9-thio-1,N^2-ethenoguanosine]	0.8	0.75	no effect on HeLa cell viability was observed								
Cc1cn2c(=S)c3nc[nH]c3nc2[nH]1 [6-Me-TEGua, 6-methyl-9-thio-1,N^2-ethenoguanine]	0.75	0.7		about 4%	8.8	< 100	up to 57%	78.2	51.6		
Cc1cn2c(=S)c3ncn([C@@H]4O[C@H](CO)[C@@H](O)[C@H]4O)c3nc2[nH]1 [6-Me-TEGuo, 6-methyl-9-thio-1,N^2-ethenoguanosine]	-0.61	-0.67		about 4%	8.8	< 100	up to 42%	55.8	63.8	> 1	8.9
Nc1nc2nc[nH]c2c(=S)[nH]1 [6TG, 6-thioguanine, reference compound]										> 1	
S=c1c2nc[nH]c2nc2[nH]ccn12 [TEGua, 9-thio-1,N^2-ethenoguanine]	0.58	0.52		about 6%	8.6			137	97.9		
OC[C@H]1O[C@@H](n2cnc3c(=S)n4cc[nH]c4nc32)[C@H](O)[C@@H]1O [TEGuo, 9-thio-1,N^2-ethenoguanosine]	-0.89	-0.96		about 6%	8.6	< 100		80.2	83.6	> 1	8.7
